# Test results as given in patent US20150118229A1, “JAK1 SELECTIVE INHIBITOR AND USES THEREOF” (ABBVIE INC., priority 2013, published 2015).
# Entries after “also recorded” stand apart in the source; their conditions may differ. Where two headings read alike, the source gives them in different places.
# Key:
# IFN-γ = assay: Concanavalin A-induced IFN-γ in Lewis rats; format: in vivo; conditions: oral, 30 min prior to i.v. Con A
# Procedure: The test compound is formulated in an inert vehicle (for example but not limited to 0.5% hydroxypropylmethyl cellulose (Sigma, cat #H3785)/0.02% Tween 80 (Sigma, cat #4780) in water) at the desired concentration to achieve doses in the range of 0.01-100 mg/kg. Six-week-old male Lewis rats (125 g-150 g) (Charles River Laboratories) are dosed with the compound orally, at time zero (0 min). After about 30 min the rats are injected intravenously (i.v.) with 10 mg/kg Concanavalin A (Con A, AmershamBioscience, cat #17-0450-01) dissolved in PBS (Invitrogen, cat #14190). About 4 h later, the rats are cardiac bled and their plasma is analyzed for levels of IL-2 (ELISA kit: R&D Systems cat #R2000) and IFN-γ (ELISA kit: R&D Systems cat #RIF00).
# The rat concanavalin A (Con A) model was selected as the acute screening model because it provides an assessment of oral bioavailability, as well as a rapid measurement of effects on Jak1-dependent mechanisms. Intravenous injection of Con A into Lewis rats results in T cell receptor ligation and activation, leading to IL-2 release and IFN-γ induction by an autocrine mechanism. IL-2 release is Jak-independent, whereas IFN-γ induction is blocked by Jak1 inhibitors.
# Plasma levels of IFN-γ and IL-2 are assessed 4 hours later in a terminal bleed.
# [1] = test system: peripheral NK cell counts; assay: Peripheral NK cell counts in healthy rats; format: in vivo, rat
# Excerpt: The correlation of this effect with ex vivo cytokine signaling inhibition is shown in the right panel of FIG. 6. These measurements correlated well, confirming the Jak dependency of the NK cell count endpoint.
# To establish the relationship between changes in NK cell counts and nonclinical efficacy, the changes in NK cell counts were compared with decreases in rat AIA disease activity per unit exposure.
# [2] = test system: EPO dependent reticulocyte deployment; assay: Reticulocyte deployment assay (i.v. EPO) in rats; format: in vivo; conditions: over the exposure range efficacious in rat AIA
# Excerpt: Reticulocytes were deployed with an i.v. EPO injection, which produced a modest but very precise reticulocytosis.
# In contrast, PBS control has negligible (if any) effect. This is consistent with the fact that EPO signals through Jak2 to stimulate reticulocyte development.
# [3] = Pharmacokinetics across species; format: in vivo; conditions: rat, monkey, dog, plasma
# BCRP = target: T1, BCRP (Homo sapiens, UniProt Q9UNQ0); assay: BCRP inhibition; format: in vitro ADME
# T1 construct: expressed in transfected cells; host or cells: MDCKII-BCRP
# [4] = [14C]Compound 1 absorption and excretion in bile duct-cannulated rats; format: in vivo, Sprague-Dawley male rats
# [5] = Plasma protein binding, dog; format: in vitro ADME
# [6] = Plasma protein binding, human; format: in vitro ADME
# [7] = Metabolic stability in hepatocytes, human; format: in vitro ADME; conditions: read-out: intrinsic clearance in hepatocytes (converted)
# CYP3A4 = CYP3A4 (Homo sapiens, UniProt P08684); assay: Metabolism by recombinant CYP3A4; format: in vitro ADME
# Excerpt: In vitro biotransformation of Compound 1 primarily occurred at imidazolpyrrolopyrazinyl ethyl pyrrolidine moiety.
# [8] = Safety pharmacology in dogs (mean arterial pressure, heart rate); conditions: dog, in vivo; read-out: Cmax at which effects on mean arterial pressure and heart rate begin
# Procedure: Compound 1 was tested in a battery of safety pharmacology assays.
# [9] = Human PK in healthy Japanese and Chinese subjects, Study M13-543; format: in vivo; conditions: for AUC12/dose / Cmax/dose / Ctrough/Dose: Day 14, mean (% CV); for half-life / AUC / concentration at 14 day / AUC(0-t): human, plasma, oral; for AUC: read-out: AUC12; for concentration at 14 day: read-out: Ctrough; for AUC(0-t): mean (% CV)
# Excerpt: Two additional subjects were assigned to each dose level as placebo control.
# [10] = Clinical safety, Study M13-401
# CYP2C19 = CYP2C19 (Homo sapiens, UniProt P33261); assay: CYP inhibition in human liver microsomes, CYP2C19
# IL-7-induced pSTAT5 = assay: Ex vivo stimulation assay IL-7 pSTAT5, orally dosed healthy human subjects; conditions: oral
# [11] = Japanese, 6 & 24 mg single doses
# [12] = 18 mg, Chinese, 18 mg BID, Day 14
# [13] = 18 mg, Japanese, 18 mg BID, Day 14
# CYP2C19, sequence (P33261 whole entry): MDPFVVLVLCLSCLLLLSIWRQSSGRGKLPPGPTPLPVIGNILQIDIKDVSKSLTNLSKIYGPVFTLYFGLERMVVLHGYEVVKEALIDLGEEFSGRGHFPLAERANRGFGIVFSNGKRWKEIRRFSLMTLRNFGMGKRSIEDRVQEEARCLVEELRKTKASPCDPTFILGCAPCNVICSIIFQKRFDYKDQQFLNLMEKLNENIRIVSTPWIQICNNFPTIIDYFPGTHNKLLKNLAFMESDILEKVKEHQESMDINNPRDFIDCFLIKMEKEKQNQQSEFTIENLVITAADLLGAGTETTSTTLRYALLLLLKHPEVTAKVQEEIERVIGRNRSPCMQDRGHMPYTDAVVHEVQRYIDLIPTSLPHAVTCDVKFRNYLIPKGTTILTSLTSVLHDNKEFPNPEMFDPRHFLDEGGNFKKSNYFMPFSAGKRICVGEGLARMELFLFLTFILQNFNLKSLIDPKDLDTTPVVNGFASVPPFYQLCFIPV
# CYP3A4, sequence (P08684 whole entry): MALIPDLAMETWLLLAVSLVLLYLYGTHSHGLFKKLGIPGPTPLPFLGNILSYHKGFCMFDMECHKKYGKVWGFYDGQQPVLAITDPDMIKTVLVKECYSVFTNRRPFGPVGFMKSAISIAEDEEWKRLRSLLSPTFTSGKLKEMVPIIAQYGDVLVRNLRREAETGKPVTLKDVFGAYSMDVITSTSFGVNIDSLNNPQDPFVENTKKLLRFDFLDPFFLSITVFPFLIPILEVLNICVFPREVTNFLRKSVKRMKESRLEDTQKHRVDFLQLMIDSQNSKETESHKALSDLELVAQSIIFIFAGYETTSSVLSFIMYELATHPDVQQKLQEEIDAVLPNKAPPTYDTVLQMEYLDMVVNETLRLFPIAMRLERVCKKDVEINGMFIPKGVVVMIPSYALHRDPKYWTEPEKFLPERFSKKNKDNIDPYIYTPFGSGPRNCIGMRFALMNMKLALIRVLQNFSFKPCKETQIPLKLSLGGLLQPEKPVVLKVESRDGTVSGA
# T1 sequence (Q9UNQ0 whole entry): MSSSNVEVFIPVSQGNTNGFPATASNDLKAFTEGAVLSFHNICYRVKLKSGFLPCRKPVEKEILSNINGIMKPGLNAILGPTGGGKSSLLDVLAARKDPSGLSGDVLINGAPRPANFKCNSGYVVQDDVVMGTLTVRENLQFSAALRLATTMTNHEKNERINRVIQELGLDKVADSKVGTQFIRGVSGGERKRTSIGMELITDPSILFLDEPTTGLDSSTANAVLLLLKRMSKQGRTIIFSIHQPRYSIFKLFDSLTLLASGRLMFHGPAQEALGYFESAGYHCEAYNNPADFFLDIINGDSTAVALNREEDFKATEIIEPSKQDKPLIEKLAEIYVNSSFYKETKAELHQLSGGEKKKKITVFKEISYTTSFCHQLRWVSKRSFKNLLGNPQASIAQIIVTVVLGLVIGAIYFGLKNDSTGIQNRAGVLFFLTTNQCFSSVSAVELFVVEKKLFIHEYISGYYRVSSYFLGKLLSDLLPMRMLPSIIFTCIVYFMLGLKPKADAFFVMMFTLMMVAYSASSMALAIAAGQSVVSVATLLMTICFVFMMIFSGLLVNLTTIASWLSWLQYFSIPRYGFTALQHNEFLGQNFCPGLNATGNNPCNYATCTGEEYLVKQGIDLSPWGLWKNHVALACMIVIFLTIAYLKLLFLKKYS
smiles,measurement,setting,value
"CC[C@@H]1CN(C(=O)NCC(F)(F)F)C[C@@H]1c1cnc2cnc3[nH]ccc3n12 [Compound 1, (3S,4R)-3-ethyl-4-(3H-imidazo[1,2-a]pyrrolo[2,3-e]pyrazin-8-yl)-N-(2,2,2-trifluoroethyl)pyrrolidine-1-carboxamide]",ED50,"IFN-γ; Rattus norvegicus, read-out: ED50, inhibition of IFN-γ release",0.4 mg/kg
same,"ED80, inhibition of IFN-γ release",IFN-γ,5.8 mg/kg
same,effects on peripheral NK cell counts,"[1]; over the efficacious exposure range, rat",less than that of Tofacitinib
same,predicted maximum decrease of NK cell counts,"[1]; over the intended clinical exposure range, on the basis of rat models",approximately 40%
same,NK Counts (exposure),[1]; rat,290 ng·h/mL
same,NK cell count decrease at about 60% efficacy (inhibition of paw swelling),[1]; rat,~25%
same,effects on reticulocyte deployment,[2],less than that of Tofacitinib
same,Vd,"[3]; iv, all species, read-out: Vss",1.6 to 2.7 L/kg
same,half-life,"[3]; oral, read-out: plasma elimination half-life after oral dosing",3 to 5 h
same,IC50,BCRP,126 µM
same,mean total recovery of dosed radioactivity,[4]; intravenous,96.0%
same,radioactivity excreted into bile,[4]; intravenous,49.7 % of dose
same,radioactivity excreted into urine,[4]; intravenous,23.7 % of dose
same,mean total recovery of dosed radioactivity,[4]; oral,96.8%
same,parent drug excreted unchanged in urine,[4]; oral,9%
same,radioactivity excreted into bile,[4]; oral,52.6 % of dose
same,radioactivity excreted into urine,[4]; oral,11.1 % of dose
same,dose absorbed (radioactivity in bile and urine),[4]; single oral dose 3 mg/kg,at least 63.7%
same,fraction unbound,[5],0.82
same,fraction unbound,[6],0.53
same,CLint scaled at 1 μM,[7],6.1 mL/min/kg
same,percentage of parent remaining,CYP3A4,36.0%
same,Cmax,[8],420 ng/mL
same,CL/F,"[9]; Chinese, 18 mg BID, Day 14",39.0 L/h
same,AUC12/dose,"[9]; Chinese, 18 mg BID",25.9 ng·h/mL/mg
same,Cmax/dose,"[9]; Chinese, 18 mg BID",6.57 ng/mL/mg
same,Ctrough/Dose,"[9]; Chinese, 18 mg BID",0.43 ng/mL/mg
same,AUC lower than previously observed in Western subjects,"[9]; Japanese, 3 mg single dose",14%
same,Cmax lower than previously observed in Western subjects,"[9]; Japanese, 3 mg single dose",22%
same,CL/F,"[9]; Japanese, 18 mg BID, Day 14",35.2 L/h
same,AUC12/dose,"[9]; Japanese, 18 mg BID",29.0 ng·h/mL/mg
same,Cmax/dose,"[9]; Japanese, 18 mg BID",7.08 ng/mL/mg
same,Ctrough/Dose,"[9]; Japanese, 18 mg BID",0.48 ng/mL/mg
same,AUC higher than previously observed in Western subjects,[9]; [11],16-18%
same,Cmax higher than previously observed in Western subjects,[9]; [11],9%
same,half-life,"[9]; 6 mg, Japanese, single dose 6 mg, harmonic mean (pseudo % CV), not a robust estimate, read-out: t1/2 (converted)",5.5 h
same,AUC,"[9]; 18 mg, Chinese, 18 mg BID, Day 1, mean (% CV)",410 ng·h/mL
same,AUC,[9]; [12],466 ng·h/mL
same,concentration at 14 day,[9]; [12],7.7 ng/mL
same,AUC,"[9]; 18 mg, Japanese, 18 mg BID, Day 1, mean (% CV)",440 ng·h/mL
same,half-life,"[9]; 18 mg, Japanese, 18 mg BID, Day 14, harmonic mean (pseudo % CV), read-out: t1/2 (converted)",9.51 h
same,AUC,[9]; [13],522 ng·h/mL
same,concentration at 14 day,[9]; [13],8.61 ng/mL
same,half-life,"[9]; Japanese, Chinese, and Western healthy subjects, read-out: terminal t1/2",7 to 9.5 h
same,AUC(0-t),"[9]; Japanese, single dose 3 mg",87.9 ng·h/mL
same,AUC(0-t),"[9]; Japanese, single dose 6 mg",185 ng·h/mL
same,AUC(0-t),"[9]; Japanese, single dose 24 mg",722 ng·h/mL
same,dose-normalized AUC and Ctrough higher in Asians than Westerns,[9]; multiple BID dosing,approximately 20%
same,dose-normalized Cmax higher in Asians than Westerns,[9]; multiple BID dosing,approximately 40%
same,effects on blood pressure and heart rate,"[10]; FIH study, through highest single dose of 48 mg",no effects
same,subjects meeting predefined criteria for potentially clinically significant QT or QTcF interval,[10]; Study M13-401,No subjects
same,"adverse events severe, serious, or fatal",[10]; Study M13-401 Substudy 1 and 2,None
same,dose-limiting toxicities,"[10]; healthy volunteers, single doses 1 to 48 mg and 3, 6, 12, 24 mg twice daily 14 days",no dose-limiting toxicities
same,time-dependent inhibition of CYP2C19,CYP2C19; human liver microsomes,No obvious time-dependent inhibition
same,inhibition of CYP2C19,CYP2C19; up to 30 μM,did not inhibit; also recorded: not an inhibitor
same,dose causing the same inhibition of IL-7-induced pSTAT5 as 5 mg tofacitinib,IL-7-induced pSTAT5,12 mg
